According to PMC5118987 (Antimicrobial Agents and Chemotherapy, 2016):
Read-outs that look alike come from different tables or passages of the source.

What was measured:
[1] = test system: NRTI-, NNRTI- and PI-Resistant HIV-1 Mutants; experiment: Antiviral activity against NRTI-, NNRTI- and PI-resistant HIV-1 mutants; type: cell-based; details: for EC50: Human immunodeficiency virus 1, WT, Table S7
HIV-1 BaL = details: primary CD4+ T-cells, 35 days, drug at tissue culture equivalent clinical Cmin (FTC 160 × EC50)
[2] = test system: HIV-1 integration in MT-2 cells (HIV-1 IIIb); details: relative to DMSO; for Late reverse transcription products (fold change): HIV-1 IIIb-infected MT-2, compound >20-fold EC50, 12 h; for Alu-LTR integration junctions (fold change) / Integration failure of 2-LTR circles (fold change): HIV-1 IIIb-infected MT-2, compound >20-fold EC50, 24 h
Procedure: Quantification of 2-long terminal repeat (LTR) circles, late reverse transcription products, and integration junctions was adapted from a previously described method ([30]). […] Three hours after viral adsorption, the infected cells were washed twice with 20 ml of RPMI 1640 medium containing 10% FBS and antibiotics and seeded in 6-well plates in 2 ml of culture medium at 1 × 10^6 cells per well. […] These plates were incubated at 37°C for either 12 h (for late reverse transcription product quantification) or 24 h (for 2-LTR circle and Alu-LTR product quantification), after which time the cells were harvested for total DNA isolation. DNA was extracted from each well using the QIAamp DNA minikit (Qiagen, Valencia, CA) and collected as a 100-μl eluate. TaqMan real-time PCR-quantified 2-LTR junctions (2-LTR circles), late reverse transcription products, and integration junctions (Alu-LTR) were normalized to the level of host globin gene in each sample. Quantification by PCR was performed on the ViiA 7 real-time PCR system (Life Technologies, Grand Island, NY).

[3] = test system: INSTI-resistant HIV-1 mutants (HXB2); experiment: microbe, parasite or virus in culture; type: cell-based
[4] = test system: inhibitor-selected HIV-1 IIIb passages; experiment: Phenotypic profile of selected HIV-1 passages; type: cell-based; details: for EC50: Human immunodeficiency virus 1, IIIB
HIV-1 IIIb [5] = experiment: Antiviral assay in MT-2 cells; type: cell-based; details: Human immunodeficiency virus 1, IIIB, MT2; Table S9 footnote b; read-out: EC50 previously determined (start of resistance selection at twice the EC50)
Procedure: For the antiviral assay utilizing MT-2 and MT-4 cells, 50 μl of a 2× test concentration of 5-fold serially diluted compound in culture medium with 10% FBS was added to each well of a 96-well plate (9 concentrations) in triplicate. MT-2 and MT-4 cells were infected with HIV-1 IIIb at a multiplicity of infection (MOI) of 0.01 for 3 h. Fifty microliters of infected cell suspension in culture medium with 10% FBS (∼1.5 × 10^4 cells) then was added to each well containing 50 μl of diluted compound. The plates were then incubated at 37°C for 5 days. After 5 days of incubation, 100 μl of CellTiter-Glo reagent (Promega Biosciences, Inc., Madison, WI) was added to each well containing MT-2 or MT-4 cells. Cell lysis was carried out by incubation at room temperature for 10 min and chemiluminescence was read. For compound cytotoxicity assessment, the protocol was identical except that uninfected cells were used and compounds were serially diluted 3-fold.

HIV-1 IIIb [6] = experiment: HIV breakthrough selection in MT-2 cells; details: MT-2, HIV-1 IIIb; FTC 4× EC95, EVG 5× EC95, BIC and DTG 2.5× and 5× EC95; up to day 32
[7] = Cytotoxicity in AD38 cells; details: human
HBV Production = experiment: microbe, parasite or virus in culture; details: Hepatitis B virus
in vitro = details: human, CC50 in Primary Human Hepatocytes
[8] = 480 h, selected virus EVG P2 (day 20, 7.2 nM)
[9] = selected virus BIC P3 (day 47, 6 nM)
[10] = selected virus BIC P5 (day 71, 12 nM)
[11] = selected virus BIC P6 (day 86, 24 nM)
[12] = selected virus BIC P8 (day 156, 96 nM)
[13] = selected virus BIC P9 (day 181, 192 nM)
[14] = selected virus BIC P10 (day 234, 384 nM)
[15] = selected virus DTG P3Lo (day 59, 6.4 nM)
[16] = selected virus DTG P4 (day 87, 9.6 nM)
[17] = selected virus DTG P5 (day 97, 14.4 nM)
[18] = selected virus DTG P7 (day 139, 32.4 nM)
[19] = selected virus DTG P9 (day 174, 72.9 nM)
[20] = selected virus DTG P10 (day 202, 109.4 nM)
[21] = selected virus EVG P4 (day 41, 28.8 nM)
[22] = selected virus EVG P6 (day 56, 115 nM)
[23] = selected virus EVG P7 (day 67, 230 nM)
[24] = selected virus EVG P9 (day 94, 922 nM)
[25] = selected virus EVG P10 (day 119, 1843 nM)

COC(=O)N[C@H](C(=O)N[C@@H](Cc1ccccc1)[C@@H](O)CN(Cc1ccc(-c2ccccn2)cc1)NC(=O)[C@@H](NC(=O)OC)C(C)(C)C)C(C)(C)C [ATV, atazanavir]
EC50 [1]: 1.6 ± 0.9 nM
Frequency of Viral Breakthrough with RAMs (HIV-1 BaL): 0%
p24+ Wells (HIV-1 BaL): 0/24

CC(C)CN(C[C@@H](O)[C@H](Cc1ccccc1)NC(=O)O[C@H]1CO[C@H]2OCC[C@H]21)S(=O)(=O)c1ccc(N)cc1 [DRV, darunavir]
EC50 [1]: 3.5 ± 1.6 nM
Late reverse transcription products (fold change) [2]: 0.96 ± 0.11 fold change
Alu-LTR integration junctions (fold change) [2]: 0.72 ± 0.31 fold change
Integration failure of 2-LTR circles (fold change) [2]: 0.57 ± 0.24 fold change

O=C1Nc2ccc(Cl)cc2[C@@](C#CC2CC2)(C(F)(F)F)O1 [EFV, efavirenz]
EC50 ([3]; Human immunodeficiency virus 1, HXB2, IN mutant E92Q): 1.5 ± 0.3 nM
EC50 ([3]; Human immunodeficiency virus 1, HXB2, IN mutant E92Q/N155H): 1.5 ± 0.4 nM
EC50 ([3]; Human immunodeficiency virus 1, HXB2, IN mutant E138K/Q148K): 1.9 ± 0.4 nM
EC50 ([3]; Human immunodeficiency virus 1, HXB2, IN mutant G140S/Q148R): 1.5 ± 0.3 nM
EC50 ([3]; Human immunodeficiency virus 1, HXB2, IN mutant M50I (BIC/DTG selection)): 1.1 ± 0.4 nM
EC50 ([3]; Human immunodeficiency virus 1, HXB2, IN mutant M50I/R263K (BIC selection)): 1 ± 0.3 nM
EC50 ([3]; Human immunodeficiency virus 1, HXB2, IN mutant M50I/S119R/R263K (DTG selection)): 3.2 ± 1.8 nM
EC50 ([3]; Human immunodeficiency virus 1, HXB2, IN mutant N155H): 1.6 ± 0.05 nM
EC50 ([3]; Human immunodeficiency virus 1, HXB2, IN mutant N155H/Q148R): 2.2 ± 0.8 nM
EC50 ([3]; Human immunodeficiency virus 1, HXB2, IN mutant Q148R): 1.7 ± 0.1 nM
EC50 ([3]; Human immunodeficiency virus 1, HXB2, IN mutant R263K (BIC/DTG selection), Table 7): 1 ± 0.4 nM
EC50 ([3]; Human immunodeficiency virus 1, HXB2, IN mutant R263K, Table 6): 1.8 ± 0.3 nM
EC50 ([3]; Human immunodeficiency virus 1, HXB2, IN mutant S119R (DTG selection)): 2.1 ± 1.1 nM
EC50 ([3]; Human immunodeficiency virus 1, HXB2, IN mutant S119R/R263K (DTG selection)): 2.1 ± 1 nM
EC50 ([3]; Human immunodeficiency virus 1, HXB2, IN mutant S153Y (DTG selection)): 2.2 ± 1.1 nM
EC50 ([3]; Human immunodeficiency virus 1, HXB2, IN mutant S153Y/R263K (DTG selection)): 2 ± 0.7 nM
EC50 ([3]; Human immunodeficiency virus 1, HXB2, IN mutant Y143R): 1.7 ± 0.1 nM
EC50 ([3]; Human immunodeficiency virus 1, HXB2, WT (HXB2), Table 6, read-out: EC50): 1.9 ± 0.3 nM
EC50 ([3]; Human immunodeficiency virus 1, HXB2, WT (HXB2), Table 7, read-out: EC50): 1.2 ± 0.4 nM
Fold-Resistance Relative to HIV-1 IIIb ([4]; HIV-1-IIIb (reference)): 1 fold
EC50 [4, 8]: 3 nM
EC50 ([4]; HIV-1-IIIb (unselected)): 1.6 nM
EC50 [4, 9]: 1.6 nM
EC50 [4, 10]: 1.2 nM
EC50 [4, 11]: 1.3 nM
EC50 [4, 12]: 1.7 nM
EC50 [4, 13]: 2.8 nM
EC50 [4, 14]: 2.7 nM
EC50 [4, 15]: 1.2 nM
EC50 [4, 16]: 1.8 nM
EC50 [4, 17]: 1.7 nM
EC50 [4, 18]: 2.3 nM
EC50 [4, 19]: 2.1 nM
EC50 [4, 20]: 2.8 nM
EC50 [4, 21]: 2.8 nM
EC50 [4, 22]: 2.4 nM
EC50 [4, 23]: 3.6 nM
EC50 [4, 24]: 3.2 nM
EC50 [4, 25]: 2 nM
Fold-Resistance Relative to HIV-1 IIIb ([4]; selected virus BIC P3): 1 fold
Fold-Resistance Relative to HIV-1 IIIb ([4]; selected virus BIC P5): 0.8 fold
Fold-Resistance Relative to HIV-1 IIIb ([4]; selected virus BIC P6): 0.8 fold
Fold-Resistance Relative to HIV-1 IIIb ([4]; selected virus BIC P8): 1.1 fold
Fold-Resistance Relative to HIV-1 IIIb ([4]; selected virus BIC P9): 1.8 fold
Fold-Resistance Relative to HIV-1 IIIb ([4]; selected virus BIC P10): 1.7 fold
Fold-Resistance Relative to HIV-1 IIIb ([4]; selected virus DTG P3Lo): 0.8 fold
Fold-Resistance Relative to HIV-1 IIIb ([4]; selected virus DTG P4): 1.1 fold
Fold-Resistance Relative to HIV-1 IIIb ([4]; selected virus DTG P5): 1.0 fold
Fold-Resistance Relative to HIV-1 IIIb ([4]; selected virus DTG P7): 1.4 fold
Fold-Resistance Relative to HIV-1 IIIb ([4]; selected virus DTG P9): 1.3 fold
Fold-Resistance Relative to HIV-1 IIIb ([4]; selected virus DTG P10): 1.8 fold
Fold-Resistance Relative to HIV-1 IIIb ([4]; selected virus EVG P2): 1.8 fold
Fold-Resistance Relative to HIV-1 IIIb ([4]; selected virus EVG P4): 1.7 fold
Fold-Resistance Relative to HIV-1 IIIb ([4]; selected virus EVG P6): 1.5 fold
Fold-Resistance Relative to HIV-1 IIIb ([4]; selected virus EVG P7): 2.2 fold
Fold-Resistance Relative to HIV-1 IIIb ([4]; selected virus EVG P9): 2.0 fold
Fold-Resistance Relative to HIV-1 IIIb ([4]; selected virus EVG P10): 1.2 fold
EC50 [1]: 1.2 ± 0.4 nM
EC50 Fold Change Relative to WT ([1]; NNRTI resistant L100I K103N): > 83 fold change
Frequency of Viral Breakthrough with RAMs (HIV-1 BaL): 17%
p24+ Wells (HIV-1 BaL): 2/12
Late reverse transcription products (fold change) [2]: 0.21 ± 0.07 fold change
Alu-LTR integration junctions (fold change) [2]: 0.10 ± 0.05 fold change
Integration failure of 2-LTR circles (fold change) [2]: 0.05 ± 0.04 fold change

COc1cc2c(cc1Cc1cccc(Cl)c1F)c(=O)c(C(=O)O)cn2[C@H](CO)C(C)C [EVG, elvitegravir]
EC50 (HIV-1 IIIb [5]): 1.8 nM
EC50 [4, 8]: 17.8 nM
EC50 ([4]; HIV-1-IIIb (unselected)): 2.1 nM
EC50 [4, 9]: 5.1 nM
EC50 [4, 10]: 8.3 nM
EC50 [4, 11]: 7.8 nM
EC50 [4, 12]: 33.6 nM
EC50 [4, 13]: 55 nM
EC50 [4, 14]: 33 nM
EC50 [4, 15]: 1.7 nM
EC50 [4, 16]: 5 nM
EC50 [4, 17]: 9.3 nM
EC50 [4, 18]: 15.5 nM
EC50 [4, 19]: 25.1 nM
EC50 [4, 20]: 69.2 nM
EC50 [4, 21]: 30.2 nM
EC50 [4, 22]: 48.9 nM
EC50 [4, 23]: 203 nM
EC50 [4, 24]: 296 nM
EC50 [4, 25]: 246 nM
EC50 [1]: 2.5 ± 1.5 nM
day postinfection of HIV-1 breakthrough (HIV-1 IIIb [6]): 22 days
Frequency of Viral Breakthrough with RAMs (HIV-1 BaL): 54%
p24+ Wells (HIV-1 BaL): 23/24

Nc1nc(=O)n([C@@H]2CS[C@H](CO)O2)cc1F [FTC, emtricitabine]
EC50 [1]: 385 ± 225 nM
EC50 Fold Change Relative to WT ([1]; NRTI resistant 6TAMs): 10.8 fold change
CC50 at 5 days [7]: > 50000 nM
EC50 (HBV Production): 20 nM
day postinfection of HIV-1 breakthrough (HIV-1 IIIb [6]): 7 days
Frequency of Viral Breakthrough with RAMs (HIV-1 BaL): 58%
p24+ Wells (HIV-1 BaL): 14/24

COc1ccc(C[C@H](N)C(=O)N[C@H]2[C@@H](O)[C@H](n3cnc4c(N(C)C)ncnc43)O[C@@H]2CO)cc1 [Puromycin]
CC50 (in vitro; Donor 1): 1200 nM
CC50 (in vitro; Donor 2): 830 nM

Cc1cc(/C=C/C#N)cc(C)c1Nc1ccnc(Nc2ccc(C#N)cc2)n1 [RPV, rilpivirine]
EC50 [1]: 0.8 ± 0.4 nM
EC50 Fold Change Relative to WT ([1]; NNRTI resistant L100I K103N): 21.9 fold change
Frequency of Viral Breakthrough with RAMs (HIV-1 BaL): 25%
p24+ Wells (HIV-1 BaL): 6/24

C[C@H](Cn1cnc2c(N)ncnc21)OCP(=O)(O)O [TFV, tenofovir]
EC50 [1]: 3720 nM
EC50 Fold Change Relative to WT ([1]; NRTI resistant 6TAMs): 7.1 fold change
CC50 at 5 days [7]: > 50000 nM
EC50 (HBV Production): 360 nM
